Experimental data reported in publication PMC6440935, “Characterization and phase I study of CLR457, an orally bioavailable pan-class I PI3-kinase inhibitor” (Investigational New Drugs, 2018).
Where two headings read alike, the source gives them in different places.

Settings: drug-related
Excerpt: The primary objective was to define the maximum tolerated dose (MTD). Secondary objectives included assessments for safety, tolerability, pharmacokinetic (PK) profile, and preliminary antitumor activity.
Patients had histologically documented locally advanced or metastatic solid tumors harboring an activating PIK3CA mutation or amplification, PTEN loss of function, c-MET activation, [16, 17] […] Other key inclusion criteria included age ≥ 18 years, Eastern Cooperative Oncology Group performance status (ECOG-PS) ≤2, adequate organ function, measurable or non-measurable disease as determined by Response Evaluation Criteria in Solid Tumors (RECIST) version 1.1.
The starting dose for CLR457 was 5 mg QD, based on preclinical toxicology studies in accordance with ICH guidelines, and was administered at the same time each day ±2 h in a fasted state. Various doses were planned up to 300 mg QD until MTD determination.
Safety was evaluated by incidence, nature, severity, and relatedness of adverse events (AEs), and graded according to National Cancer Institute - Common Terminology Criteria for Adverse Events (NCI CTCAE) v4.0.3. DLTs were defined as any hematologic or non-hematologic ≥ Grade 3 AE assessed as possibly related to CLR457 that occurred within the first cycle (28 days) of treatment. In addition, uncontrolled (> 14 days) Grade 2 rash or hyperglycemia were also considered DLTs. All AEs regardless of attribution were collected until 30 days following the last administration of treatment or study discontinuation/termination.
Descriptive methods were used to tabulate toxicity and response endpoints in the clinical trial. All patients treated with CLR457 were included for safety. […] Dose escalation was guided by an adaptive Bayesian logistic regression model (BLRM) incorporating the escalation with overdose control (EWOC) principle. […] The study data (including DLTs during cycle 1 and other safety and PK data) were reviewed by the sponsor and trial investigators at each dose level. […] The Full Analysis Set (FAS) included all patients who received at least one dose of CLR457. Safety set included all patients who received at least one dose of CLR457 and had at least one valid post-baseline assessment. The Dose-determining set (DDS) included all patients from the safety set who either met the following minimum exposure criterion and had sufficient safety evaluations, or experienced a DLT during Cycle 1 (the first 28 days of dosing). The Pharmacokinetic analysis set included all patients who had at least one blood sample providing evaluable PK data.

C[C@H]1OC(=O)N(c2cc(-c3cnc(N)nc3C(F)(F)F)nc(N3CCOCC3)n2)[C@H]1CO [CLR457]
Decreased neutrophil count, All Grade (40 mg, N = 5): 0 n (%)
Decreased neutrophil count, Grade ≥ 3 (40 mg, N = 5): 0 n (%)
Dehydration, All Grade (40 mg, N = 5): 0 n (%)
Dehydration, Grade ≥ 3 (40 mg, N = 5): 0 n (%)
Diarrhea, All Grade (40 mg, N = 5): 3 (60.0) n (%)
Diarrhea, Grade ≥ 3 (40 mg, N = 5): 0 n (%)
Dry mouth, All Grade (40 mg, N = 5): 0 n (%)
Dry mouth, Grade ≥ 3 (40 mg, N = 5): 0 n (%)
Dry skin, All Grade (40 mg, N = 5): 0 n (%)
Dry skin, Grade ≥ 3 (40 mg, N = 5): 0 n (%)
Dysgeusia, All Grade (40 mg, N = 5): 1 (20.0) n (%)
Dysgeusia, Grade ≥ 3 (40 mg, N = 5): 0 n (%)
Fatigue, All Grade (40 mg, N = 5): 1 (20.0) n (%)
Fatigue, Grade ≥ 3 (40 mg, N = 5): 0 n (%)
Headache, All Grade (40 mg, N = 5): 0 n (%)
Headache, Grade ≥ 3 (40 mg, N = 5): 0 n (%)
Hyperglycemia, All Grade (40 mg, N = 5): 2 (40.0) n (%)
Hyperglycemia, Grade ≥ 3 (40 mg, N = 5): 0 n (%)
Hypomagnesaemia, All Grade (40 mg, N = 5): 0 n (%)
Hypomagnesaemia, Grade ≥ 3 (40 mg, N = 5): 0 n (%)
Maculo-papular rash, All Grade (40 mg, N = 5): 2 (40.0) n (%)
Maculo-papular rash, Grade ≥ 3 (40 mg, N = 5): 2 (40.0) n (%)
Nausea, All Grade (40 mg, N = 5): 2 (40.0) n (%)
Nausea, Grade ≥ 3 (40 mg, N = 5): 0 n (%)
Pneumonitis, All Grade (40 mg, N = 5): 0 n (%)
Pneumonitis, Grade ≥ 3 (40 mg, N = 5): 0 n (%)
Pruritus, All Grade (40 mg, N = 5): 1 (20.0) n (%)
Pruritus, Grade ≥ 3 (40 mg, N = 5): 0 n (%)
Pyrexia, All Grade (40 mg, N = 5): 0 n (%)
Pyrexia, Grade ≥ 3 (40 mg, N = 5): 0 n (%)
Rash, All Grade (40 mg, N = 5): 0 n (%)
Rash, Grade ≥ 3 (40 mg, N = 5): 0 n (%)
Stomatitis, All Grade (40 mg, N = 5): 3 (60.0) n (%)
Stomatitis, Grade ≥ 3 (40 mg, N = 5): 0 n (%)
Vomiting, All Grade (40 mg, N = 5): 1 (20.0) n (%)
Vomiting, Grade ≥ 3 (40 mg, N = 5): 0 n (%)
Weight decreased, All Grade (40 mg, N = 5): 1 (20.0) n (%)
Weight decreased, Grade ≥ 3 (40 mg, N = 5): 0 n (%)
Asthenia, Grade ≥ 3 (70 mg, N = 6): 0 n (%)
Chills, All Grade (70 mg, N = 6): 0 n (%)
Chills, Grade ≥ 3 (70 mg, N = 6): 0 n (%)
Colitis, All Grade (70 mg, N = 6): 1 (16.7) n (%)
Colitis, Grade ≥ 3 (70 mg, N = 6): 1 (16.7) n (%)
Cough, All Grade (70 mg, N = 6): 0 n (%)
Cough, Grade ≥ 3 (70 mg, N = 6): 0 n (%)
Decreased appetite, All Grade (70 mg, N = 6): 2 (33.3) n (%)
Decreased appetite, Grade ≥ 3 (70 mg, N = 6): 0 n (%)
Decreased neutrophil count, All Grade (70 mg, N = 6): 1 (16.7) n (%)
Decreased neutrophil count, Grade ≥ 3 (70 mg, N = 6): 0 n (%)
Dehydration, All Grade (70 mg, N = 6): 1 (16.7) n (%)
Dehydration, Grade ≥ 3 (70 mg, N = 6): 1 (16.7) n (%)
Diarrhea, All Grade (70 mg, N = 6): 4 (66.7) n (%)
Diarrhea, Grade ≥ 3 (70 mg, N = 6): 1 (16.7) n (%)
Dry mouth, All Grade (70 mg, N = 6): 1 (16.7) n (%)
Dry mouth, Grade ≥ 3 (70 mg, N = 6): 0 n (%)
Dry skin, All Grade (70 mg, N = 6): 1 (16.7) n (%)
Dry skin, Grade ≥ 3 (70 mg, N = 6): 0 n (%)
Dysgeusia, All Grade (70 mg, N = 6): 0 n (%)
Dysgeusia, Grade ≥ 3 (70 mg, N = 6): 0 n (%)
Fatigue, All Grade (70 mg, N = 6): 1 (16.7) n (%)
Fatigue, Grade ≥ 3 (70 mg, N = 6): 0 n (%)
Headache, All Grade (70 mg, N = 6): 1 (16.7) n (%)
Headache, Grade ≥ 3 (70 mg, N = 6): 0 n (%)
Hyperglycemia, All Grade (70 mg, N = 6): 1 (16.7) n (%)
Hyperglycemia, Grade ≥ 3 (70 mg, N = 6): 0 n (%)
Hypomagnesaemia, All Grade (70 mg, N = 6): 1 (16.7) n (%)
Hypomagnesaemia, Grade ≥ 3 (70 mg, N = 6): 0 n (%)
Maculo-papular rash, All Grade (70 mg, N = 6): 2 (33.3) n (%)
Maculo-papular rash, Grade ≥ 3 (70 mg, N = 6): 1 (16.7) n (%)
Nausea, All Grade (70 mg, N = 6): 2 (33.3) n (%)
Nausea, Grade ≥ 3 (70 mg, N = 6): 0 n (%)
Pneumonitis, All Grade (70 mg, N = 6): 0 n (%)
Pneumonitis, Grade ≥ 3 (70 mg, N = 6): 0 n (%)
Pruritus, All Grade (70 mg, N = 6): 1 (16.7) n (%)
Pruritus, Grade ≥ 3 (70 mg, N = 6): 0 n (%)
Pyrexia, All Grade (70 mg, N = 6): 1 (16.7) n (%)
Pyrexia, Grade ≥ 3 (70 mg, N = 6): 0 n (%)
Rash, All Grade (70 mg, N = 6): 2 (33.3) n (%)
Rash, Grade ≥ 3 (70 mg, N = 6): 1 (16.7) n (%)
Stomatitis, All Grade (70 mg, N = 6): 2 (33.3) n (%)
Stomatitis, Grade ≥ 3 (70 mg, N = 6): 0 n (%)
Vomiting, All Grade (70 mg, N = 6): 2 (33.3) n (%)
Vomiting, Grade ≥ 3 (70 mg, N = 6): 0 n (%)
Weight decreased, All Grade (70 mg, N = 6): 1 (16.7) n (%)
Weight decreased, Grade ≥ 3 (70 mg, N = 6): 0 n (%)
Asthenia, Grade ≥ 3 (100 mg, N = 11): 0 n (%)
Chills, All Grade (100 mg, N = 11): 2 (18.2) n (%)
Chills, Grade ≥ 3 (100 mg, N = 11): 0 n (%)
Colitis, All Grade (100 mg, N = 11): 1 (9.1) n (%)
Colitis, Grade ≥ 3 (100 mg, N = 11): 1 (9.1) n (%)
Cough, All Grade (100 mg, N = 11): 2 (18.2) n (%)
Cough, Grade ≥ 3 (100 mg, N = 11): 0 n (%)
Decreased appetite, All Grade (100 mg, N = 11): 4 (36.4) n (%)
Decreased appetite, Grade ≥ 3 (100 mg, N = 11): 0 n (%)
Decreased neutrophil count, All Grade (100 mg, N = 11): 1 (9.1) n (%)
Decreased neutrophil count, Grade ≥ 3 (100 mg, N = 11): 1 (9.1) n (%)
